Legend:
[1] = tested on: hematopoietic stem cells (HSCs); assay: Multi-lineage toxicity assay (MLTA), HSCs: concentration-response and QSP model fit; assay type: cell-based, human
Outline: (§1)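 Parameters come from fitting an Emax-based QSP model, with L1 regularization and Emax ranging 0–2, to vehicle-normalized, bead-corrected flow cytometry counts. Counts came from human bone marrow CD34+ cells treated from day 0 through a 6-day multi-lineage cytokine culture in SFEM II, using 2–7 donors per drug.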

[2] = tested on: granulocyte progenitor (Gran-lin prog); assay: MLTA, GranP: concentration-response and QSP model fit; assay type: cell-based, human; conditions: Homo sapiens, 144 h
Outline: as §1

[3] = tested on: monocyte progenitors (monocyte prog); assay: MLTA, MonoP: concentration-response and QSP model fit; assay type: cell-based, human
Outline: as §1

[4] = tested on: monocytes (monocyte-lin); assay: MLTA, Mono: concentration-response and QSP model fit; assay type: cell-based, human; conditions: Homo sapiens, Monocyte, 144 h
Outline: as §1

[5] = tested on: early erythroid cells (Eryth I); assay: MLTA, ErythI: concentration-response and QSP model fit; assay type: cell-based, human
Outline: as §1

[6] = tested on: lymphocyte progenitors (LymP); assay: MLTA, LymP: concentration-response and QSP model fit; assay type: cell-based, human; conditions: Homo sapiens, Lymphocyte, 144 h
Outline: as §1

[7] = tested on: total viable cells (totalViableCells); assay: MLTA, total live cells concentration-response; assay type: cell-based; conditions: Homo sapiens, 144 h, 6 days, normalized to vehicle control, read-out: total_live normalized cell count
Outline: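 Freeze-thawed primary human bone marrow CD34+ cells in SFEM II with cytokine cocktail, drug added day 0, 6 days at 37°C, 5% CO2. Live/dead counts by 17-parameter flow cytometry with DAPI exclusion, bead-normalized, volume-corrected to cells/mL. Normalized per donor to mean of six vehicle wells; 2–7 donors pooled.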

[8] = cell-killing component, max(0, EmaxT-1)

CC(=O)O[C@H]1C(=O)[C@@]2(C)[C@H]([C@H](OC(=O)c3ccccc3)[C@]3(O)C[C@H](OC(=O)[C@H](O)[C@@H](NC(=O)c4ccccc4)c4ccccc4)C(C)=C1C3(C)C)[C@]1(OC(C)=O)CO[C@@H]1C[C@@H]2O [paclitaxel]
EC50 ([1]; Homo sapiens, Hematopoietic stem cell, 144 h, QSP model fit of 6-day MLTA data): 62.3 nM
activity at 0.0002 µM ([1]; Homo sapiens, Hematopoietic stem cell, 144 h, dose 0.2 nM, 6 days, normalized to vehicle control, read-out: HSCs normalized cell count): 109%
activity at 0.001 µM ([1]; Homo sapiens, Hematopoietic stem cell, 144 h, dose 1 nM, 6 days, normalized to vehicle control, read-out: HSCs normalized cell count): 87.5%
activity at 0.005 µM ([1]; Homo sapiens, Hematopoietic stem cell, 144 h, dose 5 nM, 6 days, normalized to vehicle control, read-out: HSCs normalized cell count): 118%
activity at 0.025 µM ([1]; Homo sapiens, Hematopoietic stem cell, 144 h, dose 25 nM, 6 days, normalized to vehicle control, read-out: HSCs normalized cell count): 28.1%
activity at 0.1 µM ([1]; Homo sapiens, Hematopoietic stem cell, 144 h, dose 100 nM, 6 days, normalized to vehicle control, read-out: HSCs normalized cell count): 4.8%
activity at 0.5 µM ([1]; Homo sapiens, Hematopoietic stem cell, 144 h, dose 500 nM, 6 days, normalized to vehicle control, read-out: HSCs normalized cell count): 1.08%
activity at 2.5 µM ([1]; Homo sapiens, Hematopoietic stem cell, 144 h, dose 2500 nM, 6 days, normalized to vehicle control, read-out: HSCs normalized cell count): 1.34%
Emax ([1]; Homo sapiens, Hematopoietic stem cell, 144 h, parameter from QSP model fitting, read-out: Emax_drug_HSC): 119%
EmaxCK,HSC [1, 8]: 0.188 day⁻¹
activity at 0.0002 µM ([2]; dose 0.2 nM, 6 days, normalized to vehicle control, read-out: GranPs normalized cell count): 114%
activity at 0.001 µM ([2]; dose 1 nM, 6 days, normalized to vehicle control, read-out: GranPs normalized cell count): 112%
activity at 0.005 µM ([2]; dose 5 nM, 6 days, normalized to vehicle control, read-out: GranPs normalized cell count): 106%
activity at 0.025 µM ([2]; dose 25 nM, 6 days, normalized to vehicle control, read-out: GranPs normalized cell count): 0.213%
activity at 0.1 µM ([2]; dose 100 nM, 6 days, normalized to vehicle control, read-out: GranPs normalized cell count): 0.0154%
activity at 0.5 µM ([2]; dose 500 nM, 6 days, normalized to vehicle control, read-out: GranPs normalized cell count): 0.032%
activity at 2.5 µM ([2]; dose 2500 nM, 6 days, normalized to vehicle control, read-out: GranPs normalized cell count): 0.0153%
Emax ([2]; parameter from QSP model fitting, read-out: Emax_drug_GranP): 0.04%
EC50 ([3]; Homo sapiens, Monocyte, 144 h, QSP model fit of 6-day MLTA data, read-out: EC50MonoP): 24.8 nM
activity at 0.0002 µM ([3]; Homo sapiens, Monocyte, 144 h, dose 0.2 nM, 6 days, normalized to vehicle control, read-out: MonoPs normalized cell count): 102%
activity at 0.001 µM ([3]; Homo sapiens, Monocyte, 144 h, dose 1 nM, 6 days, normalized to vehicle control, read-out: MonoPs normalized cell count): 112%
activity at 0.005 µM ([3]; Homo sapiens, Monocyte, 144 h, dose 5 nM, 6 days, normalized to vehicle control, read-out: MonoPs normalized cell count): 89%
activity at 0.025 µM ([3]; Homo sapiens, Monocyte, 144 h, dose 25 nM, 6 days, normalized to vehicle control, read-out: MonoPs normalized cell count): 0.562%
activity at 0.1 µM ([3]; Homo sapiens, Monocyte, 144 h, dose 100 nM, 6 days, normalized to vehicle control, read-out: MonoPs normalized cell count): 0.118%
activity at 0.5 µM ([3]; Homo sapiens, Monocyte, 144 h, dose 500 nM, 6 days, normalized to vehicle control, read-out: MonoPs normalized cell count): 0.188%
activity at 2.5 µM ([3]; Homo sapiens, Monocyte, 144 h, dose 2500 nM, 6 days, normalized to vehicle control, read-out: MonoPs normalized cell count): 0.286%
Emax ([3]; Homo sapiens, Monocyte, 144 h, parameter from QSP model fitting, read-out: Emax_drug_MonoP): 156%
EmaxCK,MonoP [3, 8]: 0.556 day⁻¹
EC50 ([4]; QSP model fit of 6-day MLTA data): 30 nM
activity at 0.0002 µM ([4]; dose 0.2 nM, 6 days, normalized to vehicle control, read-out: Mon normalized cell count): 90.9%
activity at 0.001 µM ([4]; dose 1 nM, 6 days, normalized to vehicle control, read-out: Mon normalized cell count): 93.8%
activity at 0.005 µM ([4]; dose 5 nM, 6 days, normalized to vehicle control, read-out: Mon normalized cell count): 77%
activity at 0.025 µM ([4]; dose 25 nM, 6 days, normalized to vehicle control, read-out: Mon normalized cell count): 0.638%
activity at 0.1 µM ([4]; dose 100 nM, 6 days, normalized to vehicle control, read-out: Mon normalized cell count): 0.419%
activity at 0.5 µM ([4]; dose 500 nM, 6 days, normalized to vehicle control, read-out: Mon normalized cell count): 1.04%
activity at 2.5 µM ([4]; dose 2500 nM, 6 days, normalized to vehicle control, read-out: Mon normalized cell count): 0.347%
Emax ([4]; parameter from QSP model fitting, read-out: Emax_drug_Mono): 25.8%
EC50 ([5]; Homo sapiens, 144 h, QSP model fit of 6-day MLTA data, read-out: EC50ErythI): 15.4 nM
activity at 0.0002 µM ([5]; Homo sapiens, 144 h, dose 0.2 nM, 6 days, normalized to vehicle control, read-out: ErythI normalized cell count): 124%
activity at 0.001 µM ([5]; Homo sapiens, 144 h, dose 1 nM, 6 days, normalized to vehicle control, read-out: ErythI normalized cell count): 112%
activity at 0.005 µM ([5]; Homo sapiens, 144 h, dose 5 nM, 6 days, normalized to vehicle control, read-out: ErythI normalized cell count): 83.5%
activity at 0.025 µM ([5]; Homo sapiens, 144 h, dose 25 nM, 6 days, normalized to vehicle control, read-out: ErythI normalized cell count): 2.87%
activity at 0.1 µM ([5]; Homo sapiens, 144 h, dose 100 nM, 6 days, normalized to vehicle control, read-out: ErythI normalized cell count): 0.445%
activity at 0.5 µM ([5]; Homo sapiens, 144 h, dose 500 nM, 6 days, normalized to vehicle control, read-out: ErythI normalized cell count): 0.574%
activity at 2.5 µM ([5]; Homo sapiens, 144 h, dose 2500 nM, 6 days, normalized to vehicle control, read-out: ErythI normalized cell count): 0.379%
Emax ([5]; Homo sapiens, 144 h, parameter from QSP model fitting, read-out: Emax_drug_ErythroidI): 147%
EmaxCK,ErythI [5, 8]: 0.466 day⁻¹
activity at 0.0002 µM ([6]; dose 0.2 nM, 6 days, normalized to vehicle control, read-out: LymP normalized cell count): 122%
activity at 0.001 µM ([6]; dose 1 nM, 6 days, normalized to vehicle control, read-out: LymP normalized cell count): 143%
activity at 0.005 µM ([6]; dose 5 nM, 6 days, normalized to vehicle control, read-out: LymP normalized cell count): 61.3%
activity at 0.025 µM ([6]; dose 25 nM, 6 days, normalized to vehicle control, read-out: LymP normalized cell count): 9.53%
activity at 0.1 µM ([6]; dose 100 nM, 6 days, normalized to vehicle control, read-out: LymP normalized cell count): 5.4%
activity at 0.5 µM ([6]; dose 500 nM, 6 days, normalized to vehicle control, read-out: LymP normalized cell count): 7.34%
activity at 2.5 µM ([6]; dose 2500 nM, 6 days, normalized to vehicle control, read-out: LymP normalized cell count): 9.6%
Emax ([6]; parameter from QSP model fitting, read-out: Emax_drug_LymP): 0.16%
viability at 0.0002 µM ([7]; dose 0.2 nM): 102%
viability at 0.001 µM ([7]; dose 1 nM): 110%
viability at 0.005 µM ([7]; dose 5 nM): 75.9%
viability at 0.025 µM ([7]; dose 25 nM): 1.22%
viability at 0.1 µM ([7]; dose 100 nM): 0.201%
viability at 0.5 µM ([7]; dose 500 nM): 0.291%
viability at 2.5 µM ([7]; dose 2500 nM): 0.232%

Source: article PMC7402526, “An in vitro quantitative systems pharmacology approach for deconvolving mechanisms of drug-induced, multilineage cytopenias” (PLoS Computational Biology, 2020)
